According to ChEMBL document CHEMBL5442175, “EUbOPEN Chemogenomics Library - PDSP Secondary Binding” (2024):
Counter-ions that a name gives are not always drawn. One block for each compound: values may come before it.

What was measured:
D(3) dopamine receptor = D(3) dopamine receptor (Homo sapiens, UniProt P35462); test: (§1) PDSP Secondary Binding target: DRD3 - Compounds are tested at 10 uM concentration, plate are incubated at room temperature in the dark for 90 minutes. Reaction are stopped by vacuum filtration onto 0.3% polyethyleneimine soaked filter mats using Filtermate harvester. Scintillation cocktail is then melted onto microwave-dried filters on a hot plate and the radio activity is counted in Microbia counter.
[1] = biological target: T1, Muscarinic acetylcholine receptor M5 (Homo sapiens, UniProt P08912); test: as §1, with “CHRM5” for “DRD3”
T1 sequence (P08912 whole entry): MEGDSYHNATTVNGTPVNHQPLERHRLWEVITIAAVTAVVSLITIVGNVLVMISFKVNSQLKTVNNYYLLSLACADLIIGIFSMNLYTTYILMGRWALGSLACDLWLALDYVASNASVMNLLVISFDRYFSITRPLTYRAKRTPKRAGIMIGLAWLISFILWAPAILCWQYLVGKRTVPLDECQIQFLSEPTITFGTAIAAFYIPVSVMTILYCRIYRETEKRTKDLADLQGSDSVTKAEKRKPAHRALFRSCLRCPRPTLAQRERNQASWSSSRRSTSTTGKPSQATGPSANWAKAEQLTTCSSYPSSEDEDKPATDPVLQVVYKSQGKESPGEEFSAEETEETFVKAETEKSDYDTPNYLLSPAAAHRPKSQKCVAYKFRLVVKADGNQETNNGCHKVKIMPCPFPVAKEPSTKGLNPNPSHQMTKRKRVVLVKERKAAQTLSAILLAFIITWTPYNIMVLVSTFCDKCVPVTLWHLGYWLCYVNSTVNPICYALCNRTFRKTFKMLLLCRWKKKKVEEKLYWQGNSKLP

[2] = biological target: Sodium-dependent dopamine transporter (Homo sapiens, UniProt Q01959); test: as §1, with “SLC6A3” for “DRD3”
[3] = biological target: T2, Alpha-1B adrenergic receptor (Homo sapiens, UniProt P35368); test: as §1, with “ADRA1B” for “DRD3”
T2 sequence (P35368 whole entry): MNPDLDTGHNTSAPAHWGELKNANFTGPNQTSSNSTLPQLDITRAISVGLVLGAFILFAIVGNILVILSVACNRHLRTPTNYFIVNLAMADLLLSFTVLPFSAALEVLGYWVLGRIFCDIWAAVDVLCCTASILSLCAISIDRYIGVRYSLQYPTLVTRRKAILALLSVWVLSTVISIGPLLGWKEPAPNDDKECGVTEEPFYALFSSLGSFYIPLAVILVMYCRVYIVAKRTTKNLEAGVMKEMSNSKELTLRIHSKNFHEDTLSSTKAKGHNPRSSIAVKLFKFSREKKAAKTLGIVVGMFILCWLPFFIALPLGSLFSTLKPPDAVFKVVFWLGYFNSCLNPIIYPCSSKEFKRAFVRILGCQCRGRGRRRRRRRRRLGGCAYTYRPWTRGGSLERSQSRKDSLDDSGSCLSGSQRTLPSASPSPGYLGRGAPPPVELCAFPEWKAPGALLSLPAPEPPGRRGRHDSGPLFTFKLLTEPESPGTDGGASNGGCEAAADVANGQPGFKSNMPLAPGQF

[4] = biological target: Sigma intracellular receptor 2 (Homo sapiens, UniProt Q5BJF2); test: as §1, with “TMEM97” for “DRD3”
[5] = biological target: 5-hydroxytryptamine receptor 5A (Homo sapiens, UniProt P47898); test: as §1, with “HTR5A” for “DRD3”
D(4) dopamine receptor = biological target: T3, D(4) dopamine receptor (Homo sapiens, UniProt P21917); test: as §1, with “DRD4” for “DRD3”
T3 sequence (P21917 whole entry): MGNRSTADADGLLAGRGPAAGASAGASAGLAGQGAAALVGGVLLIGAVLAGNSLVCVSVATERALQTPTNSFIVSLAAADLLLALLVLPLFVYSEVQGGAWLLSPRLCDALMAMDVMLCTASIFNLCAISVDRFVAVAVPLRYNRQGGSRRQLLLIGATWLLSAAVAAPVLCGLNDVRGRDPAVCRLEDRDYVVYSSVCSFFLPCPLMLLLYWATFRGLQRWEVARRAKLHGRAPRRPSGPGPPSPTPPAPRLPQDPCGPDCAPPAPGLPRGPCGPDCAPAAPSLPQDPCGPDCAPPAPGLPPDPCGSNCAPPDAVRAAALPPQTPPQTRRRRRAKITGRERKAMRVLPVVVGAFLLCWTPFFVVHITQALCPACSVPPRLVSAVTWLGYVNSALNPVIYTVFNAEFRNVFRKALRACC

Translocator protein = Translocator protein (Homo sapiens, UniProt P30536); test: as §1, with “TSPO” for “DRD3”
[6] = biological target: Sigma non-opioid intracellular receptor 1 (Homo sapiens, UniProt Q99720); test: as §1, with “SIGMAR1” for “DRD3”
Mu-type opioid receptor = Mu-type opioid receptor (Homo sapiens, UniProt P35372); test: as §1, with “OPRM1” for “DRD3”
[7] = biological target: 5-hydroxytryptamine receptor 2B (Homo sapiens, UniProt P41595); test: as §1, with “HTR2B” for “DRD3”
[8] = biological target: Sodium-dependent noradrenaline transporter (Homo sapiens, UniProt P23975); test: as §1, with “SLC6A2” for “DRD3”
[9] = biological target: 5-hydroxytryptamine receptor 2A (Homo sapiens, UniProt P28223); test: as §1, with “HTR2A” for “DRD3”
[10] = biological target: 5-hydroxytryptamine receptor 1D (Homo sapiens, UniProt P28221); test: as §1, with “HTR1D” for “DRD3”
[11] = biological target: 5-hydroxytryptamine receptor 7 (Homo sapiens, UniProt P34969); test: as §1, with “HTR7” for “DRD3”
[12] = biological target: T4, Alpha-2A adrenergic receptor (Homo sapiens, UniProt P08913); test: as §1, with “ADRA2A” for “DRD3”
T4 sequence (P08913 whole entry): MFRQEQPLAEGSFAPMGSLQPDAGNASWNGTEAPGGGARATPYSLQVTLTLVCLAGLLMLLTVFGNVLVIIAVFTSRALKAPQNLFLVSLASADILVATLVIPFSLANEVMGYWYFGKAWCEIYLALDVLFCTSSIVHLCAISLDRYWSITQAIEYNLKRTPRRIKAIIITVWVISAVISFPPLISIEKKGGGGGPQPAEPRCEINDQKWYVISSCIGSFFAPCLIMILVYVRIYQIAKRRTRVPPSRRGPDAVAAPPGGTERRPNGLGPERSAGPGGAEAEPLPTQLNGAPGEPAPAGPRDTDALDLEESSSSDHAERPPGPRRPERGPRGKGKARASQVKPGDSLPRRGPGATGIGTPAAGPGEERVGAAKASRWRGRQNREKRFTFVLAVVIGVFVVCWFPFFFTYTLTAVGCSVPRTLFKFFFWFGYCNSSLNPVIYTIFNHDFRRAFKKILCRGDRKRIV

Sequence of Sodium-dependent dopamine transporter (Q01959 whole entry): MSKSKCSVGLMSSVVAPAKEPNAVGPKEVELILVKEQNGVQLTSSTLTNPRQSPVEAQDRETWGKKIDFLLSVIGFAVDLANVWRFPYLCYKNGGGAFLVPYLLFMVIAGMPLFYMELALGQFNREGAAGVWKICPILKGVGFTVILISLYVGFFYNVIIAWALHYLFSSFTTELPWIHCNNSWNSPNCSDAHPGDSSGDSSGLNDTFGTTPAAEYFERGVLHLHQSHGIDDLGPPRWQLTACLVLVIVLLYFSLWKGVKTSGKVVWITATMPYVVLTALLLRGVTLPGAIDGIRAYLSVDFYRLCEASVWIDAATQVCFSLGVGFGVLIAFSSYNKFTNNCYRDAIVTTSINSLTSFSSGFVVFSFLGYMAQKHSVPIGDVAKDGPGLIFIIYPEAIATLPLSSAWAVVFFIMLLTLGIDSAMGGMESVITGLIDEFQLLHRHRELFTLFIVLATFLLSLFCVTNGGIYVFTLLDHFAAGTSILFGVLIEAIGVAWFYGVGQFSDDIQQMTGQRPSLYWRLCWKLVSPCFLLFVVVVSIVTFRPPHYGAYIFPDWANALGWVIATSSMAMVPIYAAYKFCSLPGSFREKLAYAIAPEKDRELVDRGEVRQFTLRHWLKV
Sequence of Sigma intracellular receptor 2 (Q5BJF2 whole entry): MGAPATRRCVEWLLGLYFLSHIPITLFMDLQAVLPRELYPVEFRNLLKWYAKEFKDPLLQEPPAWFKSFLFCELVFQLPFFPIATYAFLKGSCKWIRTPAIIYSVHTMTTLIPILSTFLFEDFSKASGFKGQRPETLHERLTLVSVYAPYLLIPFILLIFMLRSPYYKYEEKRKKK
Sequence of 5-hydroxytryptamine receptor 2B (P41595 whole entry): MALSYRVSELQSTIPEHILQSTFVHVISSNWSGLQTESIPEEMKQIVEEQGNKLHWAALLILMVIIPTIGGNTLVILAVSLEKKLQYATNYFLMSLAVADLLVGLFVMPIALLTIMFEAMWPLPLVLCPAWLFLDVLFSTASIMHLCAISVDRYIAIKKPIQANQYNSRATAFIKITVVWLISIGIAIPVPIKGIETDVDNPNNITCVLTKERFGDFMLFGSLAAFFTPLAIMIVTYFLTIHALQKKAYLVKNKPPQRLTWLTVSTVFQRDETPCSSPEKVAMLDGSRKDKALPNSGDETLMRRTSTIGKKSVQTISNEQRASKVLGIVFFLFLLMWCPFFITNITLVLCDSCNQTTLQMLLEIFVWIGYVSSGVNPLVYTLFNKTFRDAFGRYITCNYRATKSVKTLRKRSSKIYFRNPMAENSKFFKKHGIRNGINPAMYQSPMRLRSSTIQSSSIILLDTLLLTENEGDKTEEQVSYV
Sequence of Sigma non-opioid intracellular receptor 1 (Q99720 whole entry): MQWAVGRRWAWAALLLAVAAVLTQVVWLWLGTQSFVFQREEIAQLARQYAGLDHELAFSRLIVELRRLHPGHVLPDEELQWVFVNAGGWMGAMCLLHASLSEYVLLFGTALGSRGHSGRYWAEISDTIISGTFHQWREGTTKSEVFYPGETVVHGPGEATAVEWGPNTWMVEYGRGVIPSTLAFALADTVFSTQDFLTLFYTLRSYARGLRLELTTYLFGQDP
Sequence of 5-hydroxytryptamine receptor 2A (P28223 whole entry): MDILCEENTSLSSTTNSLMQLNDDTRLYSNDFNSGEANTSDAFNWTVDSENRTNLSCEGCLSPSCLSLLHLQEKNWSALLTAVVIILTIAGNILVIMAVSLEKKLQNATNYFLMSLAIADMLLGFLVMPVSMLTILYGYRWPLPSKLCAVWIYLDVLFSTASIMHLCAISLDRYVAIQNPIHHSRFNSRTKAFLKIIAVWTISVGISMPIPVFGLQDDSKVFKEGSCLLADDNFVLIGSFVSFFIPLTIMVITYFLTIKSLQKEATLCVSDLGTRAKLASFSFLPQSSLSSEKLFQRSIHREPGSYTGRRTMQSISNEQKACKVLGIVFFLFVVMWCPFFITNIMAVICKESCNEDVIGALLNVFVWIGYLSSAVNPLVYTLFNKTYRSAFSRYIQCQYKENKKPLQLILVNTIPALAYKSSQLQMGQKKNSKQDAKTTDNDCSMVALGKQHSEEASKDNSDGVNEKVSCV
Sequence of D(3) dopamine receptor (P35462 whole entry): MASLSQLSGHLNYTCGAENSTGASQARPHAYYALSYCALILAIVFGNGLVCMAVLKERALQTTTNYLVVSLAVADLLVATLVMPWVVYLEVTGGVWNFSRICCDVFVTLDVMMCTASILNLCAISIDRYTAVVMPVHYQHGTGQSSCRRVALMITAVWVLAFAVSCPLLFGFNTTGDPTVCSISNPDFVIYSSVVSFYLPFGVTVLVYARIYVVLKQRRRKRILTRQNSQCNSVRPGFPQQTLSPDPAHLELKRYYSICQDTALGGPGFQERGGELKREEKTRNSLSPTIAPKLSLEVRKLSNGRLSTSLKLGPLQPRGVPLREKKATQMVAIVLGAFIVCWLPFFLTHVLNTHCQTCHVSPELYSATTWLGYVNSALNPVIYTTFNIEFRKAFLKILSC
Sequence of Translocator protein (P30536 whole entry): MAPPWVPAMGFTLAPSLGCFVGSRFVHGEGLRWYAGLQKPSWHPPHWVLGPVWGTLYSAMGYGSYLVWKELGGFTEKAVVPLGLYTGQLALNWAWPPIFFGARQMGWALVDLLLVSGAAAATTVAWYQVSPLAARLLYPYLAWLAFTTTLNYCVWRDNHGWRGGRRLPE
Sequence of 5-hydroxytryptamine receptor 5A (P47898 whole entry): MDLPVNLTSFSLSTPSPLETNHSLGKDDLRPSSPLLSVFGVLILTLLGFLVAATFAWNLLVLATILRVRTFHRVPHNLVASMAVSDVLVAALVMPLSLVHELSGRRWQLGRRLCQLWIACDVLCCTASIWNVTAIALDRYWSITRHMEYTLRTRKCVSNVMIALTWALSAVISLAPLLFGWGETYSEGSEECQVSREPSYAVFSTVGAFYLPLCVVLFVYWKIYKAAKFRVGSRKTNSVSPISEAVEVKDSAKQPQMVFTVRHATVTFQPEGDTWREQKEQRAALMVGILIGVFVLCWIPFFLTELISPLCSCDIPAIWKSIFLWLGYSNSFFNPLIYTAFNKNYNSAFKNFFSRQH
Sequence of 5-hydroxytryptamine receptor 7 (P34969 whole entry): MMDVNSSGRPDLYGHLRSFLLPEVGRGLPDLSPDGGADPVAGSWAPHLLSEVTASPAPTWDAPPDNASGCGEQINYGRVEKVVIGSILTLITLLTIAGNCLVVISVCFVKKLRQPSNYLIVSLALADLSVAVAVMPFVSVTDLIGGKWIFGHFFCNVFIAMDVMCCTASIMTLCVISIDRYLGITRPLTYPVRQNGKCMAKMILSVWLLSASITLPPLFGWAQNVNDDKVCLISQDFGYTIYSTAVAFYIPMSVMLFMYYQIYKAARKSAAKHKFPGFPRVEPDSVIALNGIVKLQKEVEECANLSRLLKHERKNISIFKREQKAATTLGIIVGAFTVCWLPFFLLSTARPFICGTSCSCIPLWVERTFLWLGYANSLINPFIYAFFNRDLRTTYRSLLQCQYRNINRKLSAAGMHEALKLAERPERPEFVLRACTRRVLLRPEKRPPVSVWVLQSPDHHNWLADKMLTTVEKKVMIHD
Sequence of Mu-type opioid receptor (P35372 whole entry): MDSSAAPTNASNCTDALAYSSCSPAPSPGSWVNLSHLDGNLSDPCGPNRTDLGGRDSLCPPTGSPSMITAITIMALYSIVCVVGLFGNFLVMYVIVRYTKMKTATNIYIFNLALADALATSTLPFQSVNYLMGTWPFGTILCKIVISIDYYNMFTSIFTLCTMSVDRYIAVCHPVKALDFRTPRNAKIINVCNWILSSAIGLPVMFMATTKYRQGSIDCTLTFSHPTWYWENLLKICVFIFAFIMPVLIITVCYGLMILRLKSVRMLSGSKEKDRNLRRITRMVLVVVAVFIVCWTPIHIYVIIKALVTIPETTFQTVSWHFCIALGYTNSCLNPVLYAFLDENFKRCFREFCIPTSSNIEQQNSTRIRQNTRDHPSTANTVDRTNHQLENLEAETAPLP
Sequence of Sodium-dependent noradrenaline transporter (P23975 whole entry): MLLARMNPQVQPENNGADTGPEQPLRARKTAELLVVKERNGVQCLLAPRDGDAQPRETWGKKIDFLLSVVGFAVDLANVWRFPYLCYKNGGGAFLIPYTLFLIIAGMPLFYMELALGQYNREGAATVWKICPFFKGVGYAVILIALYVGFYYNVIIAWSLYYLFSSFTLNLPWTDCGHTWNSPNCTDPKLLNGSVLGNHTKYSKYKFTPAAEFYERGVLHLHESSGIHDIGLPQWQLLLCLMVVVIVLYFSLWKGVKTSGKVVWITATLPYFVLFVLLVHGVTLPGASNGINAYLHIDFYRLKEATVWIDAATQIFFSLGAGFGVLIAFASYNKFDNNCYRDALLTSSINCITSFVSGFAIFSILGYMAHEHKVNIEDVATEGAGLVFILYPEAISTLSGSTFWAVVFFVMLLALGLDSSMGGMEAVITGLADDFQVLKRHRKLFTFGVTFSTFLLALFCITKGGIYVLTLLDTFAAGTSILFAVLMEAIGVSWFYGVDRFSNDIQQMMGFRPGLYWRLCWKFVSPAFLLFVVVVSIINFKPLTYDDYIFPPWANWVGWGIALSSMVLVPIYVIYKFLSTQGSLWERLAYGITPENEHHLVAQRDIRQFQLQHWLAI
Sequence of 5-hydroxytryptamine receptor 1D (P28221 whole entry): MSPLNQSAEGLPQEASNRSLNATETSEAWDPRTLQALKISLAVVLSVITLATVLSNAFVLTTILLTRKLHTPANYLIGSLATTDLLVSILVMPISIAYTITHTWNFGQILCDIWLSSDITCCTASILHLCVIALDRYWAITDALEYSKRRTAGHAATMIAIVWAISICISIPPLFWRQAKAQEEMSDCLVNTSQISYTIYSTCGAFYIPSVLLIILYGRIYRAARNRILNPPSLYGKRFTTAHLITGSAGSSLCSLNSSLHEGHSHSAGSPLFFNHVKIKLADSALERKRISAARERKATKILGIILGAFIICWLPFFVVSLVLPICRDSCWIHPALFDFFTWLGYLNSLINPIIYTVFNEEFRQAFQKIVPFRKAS

SMILES: COc1ccccc1CN[C@H]1C2CCN(CC2)[C@H]1C(c1ccccc1)c1ccccc1 [CP-96345]
Ki [4]: 0.906 µM
Ki [1]: 4.94 µM

SMILES: CC(C)NCC(O)COc1cccc2[nH]ccc12 (stereo not given) [PINDOLOL]
Ki [5]: 7.05 µM
Ki [4]: 3.32 µM
Ki (D(4) dopamine receptor): 1.66 µM

SMILES: N#Cc1c(O)nc(SCc2cccc(F)c2F)nc1C1CC1
Ki [1]: 6.56 µM

SMILES: Cc1cc(C)c(N)c(C#Cc2cccc(F)c2)n1 [RASEGLURANT]
Ki [8]: 0.345 µM

SMILES: CC1=C2C[C@H]3[C@@H](CC=C4C[C@@H](O)CC[C@@]43C)[C@@H]2CC[C@]12O[C@@H]1C[C@H](C)CN[C@H]1[C@H]2C [CYCLOPAMINE]
Ki [4]: 0.599 µM
Ki [2]: 3.42 µM

SMILES: CC(C)Oc1ccccc1C(=O)Nc1ccccc1C(=O)Nc1cccc(S(=O)(=O)C(F)(F)F)c1
Ki (Translocator protein): 0.111 µM
Ki [9]: 0.983 µM

SMILES: CC(C)NCC(O)COc1ccc(CCOCC2CC2)cc1 (stereo not given) [BETAXOLOL HYDROCHLORIDE]
Ki [4]: 1.65 µM
Ki [6]: 0.248 µM

SMILES: CC1(C)SSC(C)(C)[C@@H](NC(=O)[C@@H](N)Cc2ccc(O)cc2)C(=O)NCC(=O)N[C@@H](Cc2ccccc2)C(=O)N[C@H]1C(=O)O
Ki (Translocator protein): 1.63 µM

SMILES: CCCCCCCCCCCCC/C=C/[C@@H](O)[C@@H](N)COP(=O)(O)O
Ki (Translocator protein): 3.12 µM
Ki [4]: 0.672 µM
Ki [6]: 5.98 µM

SMILES: CCCn1c(=O)c2[nH]c(C34CC5CC(CC3C5)C4)nc2n(CCC)c1=O [ROLOFYLLINE]
Ki [2]: 3.36 µM

SMILES: CCCCC#Cc1nc(NC)c2ncn([C@@H]3O[C@H](CO)[C@@H](O)[C@H]3O)c2n1
Ki [2]: > 10 µM
Ki [9]: 7.87 µM

SMILES: O=C(Cc1ccccc1)Nc1nc2ccc(Cl)cc2c2nc(-c3ccco3)nn12
Ki [10]: > 10 µM

SMILES: COC(=O)[C@H]1[C@H]2C[C@H]3c4[nH]c5ccccc5c4CCN3C[C@H]2CC[C@@H]1O [RAUWOLSCINE HYDROCHLORIDE]
Ki [11]: 0.333 µM
Ki [6]: 2.78 µM

SMILES: CNC[C@H](O)c1cccc(O)c1 [PHENYLEPHRINE]
Ki [11]: 1.11 µM

SMILES: Cc1c(F)cccc1NC(=O)Nc1ccc(Cl)c(S(=O)(=O)[C@H]2CCCNC2)c1O [DANIRIXIN]
Ki [12]: > 10 µM

SMILES: FC(F)(F)c1c(N2CCC(c3ccccc3)CC2)ccn2c(CC3CC3)nnc12
Ki [6]: 0.983 µM
Ki [2]: 4.31 µM

SMILES: CN1C(=O)[C@@H](NC(=O)c2cc3ccccc3[nH]2)N=C(c2ccccc2)c2ccccc21 [DEVAZEPIDE]
Ki (Translocator protein): 3.33 µM

SMILES: Nc1nc(NCCc2ccc(O)cc2)nc2nc(-c3ccco3)nn12 [ZM-241385]
Ki [4]: 1.07 µM

SMILES: COc1ccc(Br)cc1S(=O)(=O)NC(=O)/C=C/c1ccccc1Cc1ccc2ccccc2c1
Ki (D(3) dopamine receptor): 0.582 µM

SMILES: COc1ccc(/C=C/CCCCOc2ccc(C(=O)c3cccc(C(=O)O)c3)cc2CCC(=O)O)cc1
Ki (D(3) dopamine receptor): 1.96 µM

The next lines start with the values.

Ki (D(3) dopamine receptor): 0.591 µM
SMILES: O=C(O)CC1CCC2(CC1)CCN(c1cc(OC(F)(F)F)ccc1Cl)CC2

Ki (D(3) dopamine receptor): 2.14 µM
Ki [1]: > 10 µM
Ki [2]: 2.99 µM
SMILES: Cc1csc(NC(=O)c2cc(F)cc(Oc3cncnc3)c2)n1

Ki [1]: 6.85 µM
Ki [2]: 4.49 µM
Ki [3]: > 10 µM
SMILES: Cc1nc(-c2ccc(C(F)(F)F)cc2)sc1COc1ccc([C@H](CC(=O)O)c2ccon2)cc1

Ki (Translocator protein): > 10 µM
Ki [5]: 0.8 µM
Ki [6]: 2.97 µM
Ki (Mu-type opioid receptor): 1.79 µM
SMILES: COc1cc2nc(N3CCN(C(=O)c4ccco4)CC3)nc(N)c2cc1OC [PRAZOSIN HYDROCHLORIDE]

Ki [7]: 0.844 µM
Ki [3]: > 10 µM
SMILES: COc1cc2c(CCNC(C)=O)c[nH]c2cc1Cl

Ki [6]: 5.78 µM
Ki [7]: 2.68 µM
SMILES: CCc1cc(C(C)=O)c(O)cc1OCCCCCC(C)(C)c1nn[nH]n1 [LY-255283]

Ki [6]: 8.85 µM
SMILES: CCC(=O)NCC[C@@H]1CCc2ccc3c(c21)CCO3 [RAMELTEON]

Ki [4]: 1.3 µM
Ki [2]: 0.519 µM
SMILES: CCCSc1nc(N[C@@H]2C[C@H]2c2ccc(F)c(F)c2)c2nnn([C@@H]3C[C@H](OCCO)[C@@H](O)[C@H]3O)c2n1 [TICAGRELOR]

Ki (D(3) dopamine receptor): 3.57 µM
SMILES: O=C1O[C@]2(CC[C@H](C(=O)Nc3ccn(-c4ccccc4F)n3)CC2)c2cnccc21 [MK-0557]

Ki (Translocator protein): 1.88 µM
Ki [4]: 2.12 µM
SMILES: CCCCN(CC)c1nc(C)nc2c1c(C)cn2-c1c(C)cc(C)cc1C

Ki [6]: 0.908 µM
Ki [7]: 0.656 µM
SMILES: Cc1c(C(=O)NC2CCCCC2)sc2nc3ccc(N)cc3n12

Ki (Translocator protein): 0.969 µM
Ki [6]: 0.474 µM
SMILES: COC1CCN(c2cccc(-c3cc(NC(C)=O)nc(-n4nc(C)cc4C)n3)n2)CC1

Ki [9]: 4.59 µM
SMILES: COc1ccc(CNC(=O)c2cc(-c3cncc(Cl)c3)cnc2-c2ccccn2)nc1OC [MK-1064]

Ki (Translocator protein): > 10 µM
SMILES: NC(=O)[C@@H]1CCCN1C(=O)[C@H](Cc1cnc[nH]1)NC(=O)[C@@H]1CCC(=O)N1 [PROTIRELIN]

Ki [4]: 1.87 µM
Ki [6]: 0.83 µM
SMILES: CO[C@@H]1COCC[C@@H]1N[C@@H]1CC[C@@](C(=O)N2CCc3ncc(C(F)(F)F)cc3C2)(C(C)C)C1 [MK-0812]
